Experiments:
[1] = system: Ang II levels in MIN6 cells; test: Ang II levels in MIN6 cell lysates and cultured media by Ang II ELISA; assay type: cell-based, mouse
Experimental: (§1) The DAP gene was either knocked down with DAP RNAi construct or overexpressed by transient transfection of DAP-pCMV in MIN6 cells.
(§2) The full-length DAP construct or the control vector was transfected into MIN6 cells. After culturing for 48 hours, MIN6 cells and the culture media were harvested for measurement of DAP and Ang II levels. Higher expression level of DAP (2.1-fold±0.6) in DAP-pCMV-transfected MIN6 cells compared to that in the vector-transfected cells was detected by Western blots. Ang II levels in MIN6 cell lysates and the cultured media were measured after the transfection and compared to the control transfected cells. Ang II-specific ELISA kit (Cayman Chemical) was used for the measurements.
(§3) The cells were transfected with […] of Dnpep siRNA of SEQ ID NO. 13, non-silencing control siRNA, or a full-length of Dnpep cDNA (SEQ ID NO. 12) in pCMV-SPORT6 (Open Biosystems, Huntsville, Ala.) by electroporation (BioRad Laboratories, Berkeley, Calif.). A total of 1×10^5 of the cells was seeded into 6-well culture plates coated with poly-L-lysine and cultured for 24 h. The transfection efficiency was approximately 50 percent according to a co-transfected GFP marker.
(§4) After 48 hours culture, cells and culture media were collected. Real-time PCR (RT-PCR) was conducted with the primers (Assay ID Details: Mm00497488_m1*) and the 7900HT Fast Real-Time PCR System (Applied Biosystems, Foster City, Calif.). Western blots were performed using the ECL Reagents (GE, Piscataway, N.J.).
Ang II levels were measured using the AssayMax Ang II ELISA Kit (Cayman Chemical, Ann Arbor, Mich.). Briefly, standards or samples were incubated in a 96-well plate with biotinylated anti-Ang II antibody for 2 h. After the washings, Streptavidin-Peroxidase Conjugate was added for 30 min. The final reaction was developed with the substrate chromogen and read at 450 nm by an ELISA reader. Ang II levels in the samples were calculated from an Ang II standard curve run with each assay. Values (mean±SEM) are from at least three independent experiments. ANOVA with Tukey's post hoc test was used for statistical analysis.

DAP = DAP protein level in transfected MIN6 cells by Western blot; assay type: cell-based, mouse; settings: 48 hours culture, Western blots
Experimental: as §1, §2, §3
After 48 hours culture, cells and culture media were collected. […]

DAP mRNA = DAP mRNA level in transfected MIN6 cells by RT-PCR; assay type: cell-based, mouse; settings: 48 hours culture
Experimental: It was also investigated whether endogenous DAP levels affect the Ang II levels. Dnpep siRNA and control siRNA were purchased (Qiagen, Germantown, Md.). The target sequences were nucleotides 328-348 (SEQ ID NO. 11:
[…]) of mouse Dnpep cDNA (GenBank NM_001110831; SEQ ID NO. 12). MIN6 cells were maintained in DMEM, supplemented with 10% FCS, 10 mM glucose, 2 mmol/l glutamine, 100 U/ml penicillin, and 0.1 mg/ml streptomycin.
as §3, §4

Angiotensin II (1-8) = test: cell-based or functional assay

extracellular Ang II level in DAP RNAi-transfected MIN6 cells against control cells (Ang II ELISA) (percent increase) (Angiotensin II (1-8))	extracellular Ang II level in DAP-transfected MIN6 cells against control cells (Ang II ELISA) (percent lower) (Angiotensin II (1-8))	intracellular Ang II level in DAP RNAi-transfected MIN6 cells against control cells (Ang II ELISA) (percent increase) (Angiotensin II (1-8))	intracellular Ang II level in DAP-transfected MIN6 cells against vector-treated cells (Ang II ELISA) (percent lower) (Angiotensin II (1-8))	Substance	Intracellular Ang II levels ([1]; MIN6 cell lysates, 48 hours after transfection, mean±SEM)	Intracellular Ang II levels, increase compared to control cells ([1]; MIN6 cell lysates, 48 hours culture)	Extracellular Ang II levels, increase compared to control cells ([1]; MIN6 culture media, 48 hours culture)	Extracellular Ang II levels ([1]; MIN6 cultured media, 48 hours after transfection, mean±SEM)	DAP protein level decrease compared to control cells (DAP)	Endogenous DAP mRNA level knocked down (DAP mRNA)
				DAP RNAi: Dnpep siRNA (Qiagen, SEQ ID NO. 13) targeting nucleotides 328-348 of mouse Dnpep cDNA (AATGTGGCCTGGATGGCCTCT; listed as DNA, chemistry not given here; the letters are possibly those of the target site; listed as Mus musculus)	50±6 pg/mg protein	up to 74%	57%	52±5.3 pg/mg protein	70%	78%
57	35	74	28	aspartyl aminopeptidase (DAP), mouse, gene product of Dnpep (from UniProt Q9Z2W0 1-473) (enzyme)						

From patent US20120071544A1, “Methods For Identifying Compounds Effective To Increase The Expression Or Activity Of Aspartyl Aminopeptidase In Mammalian Pancreatic Islet Cells, And Methods For Decreasing Angiotensin II Levels In Mammalian Pancreatic Islet Cells” (priority 2010, published 2012)
